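Tested at 5 concentrations; 48 h exposure; 96-well plates; endpoints linearly interpolated, else capped at highest concentration. At the GI50, growth is halved. At the TGI there is no net growth.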
Legend:
Test in all cases: NCI tumour cell line growth inhibition, 48 h
EKVX NSCLC = system: EKVX NSCLC
UO-31 renal = system: UO-31 renal
SK-MEL-28 melanoma = system: SK-MEL-28 melanoma
ACHN renal = system: ACHN renal
UACC-62 melanoma = system: UACC-62 melanoma
OVCAR-5 ovarian = system: OVCAR-5 ovarian
SF-539 CNS = system: SF-539 CNS
BT-549 breast = system: BT-549 breast
HL-60(TB) leukemia = system: HL-60(TB) leukemia
TK-10 renal = system: TK-10 renal
KM12 colon = system: KM12 colon
U251 CNS = system: U251 CNS
HCT-15 colon = system: HCT-15 colon
NCI-H460 lung = system: NCI-H460 lung
RXF 393 renal = system: RXF 393 renal
CAKI-1 renal = system: CAKI-1 renal
SNB-19 CNS = system: SNB-19 CNS
MDA-MB-435 = system: MDA-MB-435
OVCAR-3 ovarian = system: OVCAR-3 ovarian
MOLT-4 leukemia = system: MOLT-4 leukemia
K-562 leukemia = system: K-562 leukemia
HT29 colon = system: HT29 colon
NCI/ADR-RES ovarian = system: NCI/ADR-RES ovarian
SN12C renal = system: SN12C renal
NCI-H226 lung = system: NCI-H226 lung
HOP-92 NSCLC = system: HOP-92 NSCLC
SW-620 colon = system: SW-620 colon
SK-OV-3 ovarian = system: SK-OV-3 ovarian
LOX IMVI melanoma = system: LOX IMVI melanoma
HS 578T breast = system: HS 578T breast
OVCAR-4 ovarian = system: OVCAR-4 ovarian
NCI-H522 lung = system: NCI-H522 lung
SF-268 CNS = system: SF-268 CNS
HCT-116 colon = system: HCT-116 colon
IGROV1 ovarian = system: IGROV1 ovarian
MCF7 breast = system: MCF7 breast
OVCAR-8 ovarian = system: OVCAR-8 ovarian
NCI-H23 lung = system: NCI-H23 lung
A498 renal = system: A498 renal
T-47D breast = system: T-47D breast
MDA-MB-231 breast = system: MDA-MB-231 breast
COLO 205 colon = system: COLO 205 colon
CCRF-CEM leukemia = system: CCRF-CEM leukemia
SK-MEL-2 melanoma = system: SK-MEL-2 melanoma
786-0 renal = system: 786-0 renal
PC-3 prostate = system: PC-3 prostate
SK-MEL-5 melanoma = system: SK-MEL-5 melanoma
HCC-2998 colon = system: HCC-2998 colon
UACC-257 melanoma = system: UACC-257 melanoma
SR leukemia = system: SR leukemia
MALME-3M melanoma = system: MALME-3M melanoma
DU-145 prostate = system: DU-145 prostate
RPMI-8226 leukemia = system: RPMI-8226 leukemia
A549 NSCLC = system: A549 NSCLC
SF-295 CNS = system: SF-295 CNS

Work on `CCCCC[C@H](O)/C=C/[C@@H]1[C@@H](C/C=C\CCCC(=O)O)[C@@H](O)C[C@H]1O` yielded a GI50 (EKVX NSCLC) greater than 100 µM, a TGI (EKVX NSCLC) greater than 100 µM and a GI50 (UO-31 renal) greater than 100 µM. It also gave a TGI (UO-31 renal) greater than 100 µM, a GI50 (SK-MEL-28 melanoma) greater than 100 µM and a TGI (SK-MEL-28 melanoma) greater than 100 µM. It also gave a GI50 (ACHN renal) greater than 100 µM, a TGI (ACHN renal) greater than 100 µM and a GI50 (UACC-62 melanoma) greater than 100 µM. The TGI (UACC-62 melanoma) was greater than 100 µM, the GI50 (OVCAR-5 ovarian) was greater than 100 µM and the TGI (OVCAR-5 ovarian) was greater than 100 µM. For the same compound, the GI50 (SF-539 CNS) was greater than 100 µM, the TGI (SF-539 CNS) was greater than 100 µM and the GI50 (BT-549 breast) was greater than 100 µM. It also gave a TGI (BT-549 breast) greater than 100 µM, a GI50 (HL-60(TB) leukemia) greater than 100 µM and a TGI (HL-60(TB) leukemia) greater than 100 µM. The GI50 (TK-10 renal) was greater than 100 µM, the TGI (TK-10 renal) was greater than 100 µM and the GI50 (KM12 colon) was greater than 100 µM. It also gave a TGI (KM12 colon) greater than 100 µM, a GI50 (U251 CNS) greater than 100 µM and a TGI (U251 CNS) greater than 100 µM. The GI50 (HCT-15 colon) was greater than 100 µM, the TGI (HCT-15 colon) was greater than 100 µM and the GI50 (NCI-H460 lung) was greater than 100 µM. For the same compound, the TGI (NCI-H460 lung) was greater than 100 µM, the GI50 (RXF 393 renal) was greater than 100 µM and the TGI (RXF 393 renal) was greater than 100 µM. For the same compound, the GI50 (CAKI-1 renal) was greater than 100 µM, the TGI (CAKI-1 renal) was greater than 100 µM and the GI50 (SNB-19 CNS) was greater than 100 µM. It also gave a TGI (SNB-19 CNS) greater than 100 µM, a GI50 (MDA-MB-435) greater than 100 µM and a TGI (MDA-MB-435) greater than 100 µM. The GI50 (OVCAR-3 ovarian) was greater than 100 µM, the TGI (OVCAR-3 ovarian) was greater than 100 µM and the GI50 (MOLT-4 leukemia) was greater than 100 µM. The TGI (MOLT-4 leukemia) was greater than 100 µM, the GI50 (K-562 leukemia) was greater than 100 µM and the TGI (K-562 leukemia) was greater than 100 µM. It also gave a GI50 (HT29 colon) greater than 100 µM, a TGI (HT29 colon) greater than 100 µM and a GI50 (NCI/ADR-RES ovarian) greater than 100 µM. The TGI (NCI/ADR-RES ovarian) was greater than 100 µM, the GI50 (SN12C renal) was greater than 100 µM and the TGI (SN12C renal) was greater than 100 µM. The GI50 (NCI-H226 lung) was greater than 100 µM, the TGI (NCI-H226 lung) was greater than 100 µM and the GI50 (HOP-92 NSCLC) was greater than 100 µM. The TGI (HOP-92 NSCLC) was greater than 100 µM, the GI50 (SW-620 colon) was greater than 100 µM and the TGI (SW-620 colon) was greater than 100 µM. The GI50 (SK-OV-3 ovarian) was greater than 100 µM, the TGI (SK-OV-3 ovarian) was greater than 100 µM and the GI50 (LOX IMVI melanoma) was greater than 100 µM. For the same compound, the TGI (LOX IMVI melanoma) was greater than 100 µM, the GI50 (HS 578T breast) was greater than 100 µM and the TGI (HS 578T breast) was greater than 100 µM. It also gave a GI50 (OVCAR-4 ovarian) greater than 100 µM, a TGI (OVCAR-4 ovarian) greater than 100 µM and a GI50 (NCI-H522 lung) greater than 100 µM. The TGI (NCI-H522 lung) was greater than 100 µM, the GI50 (SF-268 CNS) was greater than 100 µM and the TGI (SF-268 CNS) was greater than 100 µM. The GI50 (HCT-116 colon) was greater than 100 µM, the TGI (HCT-116 colon) was greater than 100 µM and the GI50 (IGROV1 ovarian) was greater than 100 µM. The TGI (IGROV1 ovarian) was greater than 100 µM, the GI50 (MCF7 breast) was greater than 100 µM and the TGI (MCF7 breast) was greater than 100 µM. For the same compound, the GI50 (OVCAR-8 ovarian) was greater than 100 µM, the TGI (OVCAR-8 ovarian) was greater than 100 µM and the GI50 (NCI-H23 lung) was greater than 100 µM. The TGI (NCI-H23 lung) was greater than 100 µM, the GI50 (A498 renal) was greater than 100 µM and the TGI (A498 renal) was greater than 100 µM. The GI50 (T-47D breast) was greater than 100 µM, the TGI (T-47D breast) was greater than 100 µM and the GI50 (MDA-MB-231 breast) was greater than 100 µM. It also gave a TGI (MDA-MB-231 breast) greater than 100 µM, a GI50 (COLO 205 colon) greater than 100 µM and a TGI (COLO 205 colon) greater than 100 µM. The GI50 (CCRF-CEM leukemia) was greater than 100 µM, the TGI (CCRF-CEM leukemia) was greater than 100 µM and the GI50 (SK-MEL-2 melanoma) was greater than 100 µM. The TGI (SK-MEL-2 melanoma) was greater than 100 µM, the GI50 (786-0 renal) was greater than 100 µM and the TGI (786-0 renal) was greater than 100 µM. It also gave a GI50 (PC-3 prostate) greater than 100 µM, a TGI (PC-3 prostate) greater than 100 µM and a GI50 (SK-MEL-5 melanoma) greater than 100 µM. For the same compound, the TGI (SK-MEL-5 melanoma) was greater than 100 µM, the GI50 (HCC-2998 colon) was greater than 100 µM and the TGI (HCC-2998 colon) was greater than 100 µM. The GI50 (UACC-257 melanoma) was greater than 100 µM, the TGI (UACC-257 melanoma) was greater than 100 µM and the GI50 (SR leukemia) was greater than 100 µM. For the same compound, the TGI (SR leukemia) was greater than 100 µM, the GI50 (MALME-3M melanoma) was greater than 100 µM and the TGI (MALME-3M melanoma) was greater than 100 µM. For the same compound, the GI50 (DU-145 prostate) was greater than 100 µM, the TGI (DU-145 prostate) was greater than 100 µM and the GI50 (RPMI-8226 leukemia) was greater than 100 µM. The TGI (RPMI-8226 leukemia) was greater than 100 µM, the GI50 (A549 NSCLC) was greater than 100 µM and the TGI (A549 NSCLC) was greater than 100 µM. The GI50 (SF-295 CNS) was greater than 100 µM and the TGI (SF-295 CNS) was greater than 100 µM.

Reference: PubChem BioAssay (NCI)
